The text below walks through data of patent US20230117034A1, “PYRAZOLOTRIAZINES” (Bayer Aktiengesellschaft, priority 2019, published 2023).

Each structure is given as a SMILES string. Where two headings read alike, the source gives them in different places. Some results are limits rather than exact numbers.

One experiment deals with T1, CDK9/CycT1 (Homo sapiens, UniProt P50750).
T1 construct: Recombinant full-length His-tagged human CDK9 and CycT1; purchased Life Technologies PV4131; host or cells: insect cells
T1 sequence (P50750 whole entry): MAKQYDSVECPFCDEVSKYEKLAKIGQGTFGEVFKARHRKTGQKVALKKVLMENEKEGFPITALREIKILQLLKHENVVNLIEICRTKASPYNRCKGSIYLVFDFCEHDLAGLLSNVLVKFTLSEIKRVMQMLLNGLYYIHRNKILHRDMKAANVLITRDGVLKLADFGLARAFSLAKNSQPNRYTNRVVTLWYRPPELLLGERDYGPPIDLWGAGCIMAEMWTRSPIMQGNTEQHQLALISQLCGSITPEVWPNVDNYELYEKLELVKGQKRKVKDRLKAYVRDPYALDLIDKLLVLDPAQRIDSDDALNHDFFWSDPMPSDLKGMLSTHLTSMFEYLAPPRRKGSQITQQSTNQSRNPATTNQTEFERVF
T1 sequence (O60563 whole entry partner): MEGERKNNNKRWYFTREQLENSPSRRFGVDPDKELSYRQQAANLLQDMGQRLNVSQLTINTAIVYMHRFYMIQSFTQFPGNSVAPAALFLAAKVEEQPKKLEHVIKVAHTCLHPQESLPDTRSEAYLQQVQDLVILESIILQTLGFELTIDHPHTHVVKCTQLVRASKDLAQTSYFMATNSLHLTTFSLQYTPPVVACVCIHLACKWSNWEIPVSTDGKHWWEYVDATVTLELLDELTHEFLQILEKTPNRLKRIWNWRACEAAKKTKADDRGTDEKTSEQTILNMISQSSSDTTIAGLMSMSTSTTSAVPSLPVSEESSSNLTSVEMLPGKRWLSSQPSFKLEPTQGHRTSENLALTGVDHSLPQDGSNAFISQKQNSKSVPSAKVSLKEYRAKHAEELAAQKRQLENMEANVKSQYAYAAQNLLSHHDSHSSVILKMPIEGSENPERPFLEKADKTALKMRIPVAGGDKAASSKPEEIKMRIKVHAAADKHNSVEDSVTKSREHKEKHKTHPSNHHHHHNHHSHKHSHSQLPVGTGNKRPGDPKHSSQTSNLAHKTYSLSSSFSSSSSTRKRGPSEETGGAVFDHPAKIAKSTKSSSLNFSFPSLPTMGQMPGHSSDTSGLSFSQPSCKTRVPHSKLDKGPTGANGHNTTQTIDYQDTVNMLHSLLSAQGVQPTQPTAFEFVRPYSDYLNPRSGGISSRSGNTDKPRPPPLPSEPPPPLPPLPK
In words: CDK9/CycT1 high ATP kinase assay (TR-FRET, 2 mM ATP). It counts as biochemical. Conditions: 2 mM ATP (high ATP); median; read-out: CDK9/CyclinT1, 2 mM ATP (high ATP), IC50 (median). Put shortly: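 Full-length His-tagged human CDK9/CycT1 (insect cell, ~0.5 μg/mL) preincubated 15 min at 22 °C with compound in Tris pH 8.0, MgCl2, DTT buffer before reaction with biotinylated peptide substrate at high ATP (2 mM).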
(TR-FRET usually uses a lanthanide donor and a delayed reading to cut background.)

The test system of experiment [1] is MDA-MB-231, human breast cancer cells. Put plainly: Proliferation assay MDA-MB-231 (crystal violet, 4 days). Conditions: MDA-MB-231 cells, median, read-out: Prolif-MDA MB-231, IC50-[mol/l] (median). It counts as cell-based. The gist of the method:
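Growth was measured by crystal violet staining after cells had been treated with compounds (0.01-10 µmol/L, 0.1% DMSO) for 4 days, beginning 24 h after seeding. Values were normalized to a zero-point plate and to untreated controls, and IC50 values were derived by a four-parameter fit.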

Experiment [2] concerns BRCA1 mRNA expression in MDA-MB-231 cells. Put plainly: qRT-PCR assay: BRCA1 mRNA expression in MDA-MB-231. It counts as cell-based, human. The settings on record: Homo sapiens, MDA-MB-231, Inhibition of BRCA1 mRNA expression in MDA-MB-231 cells; median; read-out: RTqPCR-MDA-MB-231, IC50, BRCA1 (median). The gist of the method:
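First, cells are plated at 200,000 per well and allowed 24 h. Second, test substances are applied continuously for a further 24 h. Finally, RNA is isolated, 600 ng is converted to cDNA, and qPCR quantifies the transcript relative to GAPDH.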

For `Fc1ccc2[nH]c(CNc3nc(N4CCOCC4)nc4c(CC(F)(F)F)cnn34)nc2c1F` [Example 268, N-[(4,5-difluoro-1H-benzimidazol-2-yl)methyl]-2-(morpholin-4-yl)-8-(2,2,2-trifluoroethyl)pyrazolo[1,5-a][1,3,5]triazin-4-amine], the IC50 on CDK9/CycT1 was over 20000 nM; in experiment [1] (Homo sapiens, MDA-MB-231, 96 h) it was 9.43 nM; in experiment [2], 3.23 nM.
With `FC(F)(F)c1cnn2c(NCc3nc4cc(Cl)ccc4[nH]3)nc(N3CCOCC3)nc12` [Example 275, N-[(5-chloro-1H-benzimidazol-2-yl)methyl]-2-(morpholin-4-yl)-8-(trifluoromethyl)pyrazolo[1,5-a][1,3,5]triazin-4-amine], the IC50 at CDK9/CycT1 was over 20000 nM; in experiment [1] (Homo sapiens, MDA-MB-231, 96 h), 3.87 nM; in experiment [2], 2.01 nM.
On to `N[C@H]1CCN(c2nc(NCc3nc4ccccc4[nH]3)n3ncc(Br)c3n2)C1` [Example 245, 2-[(3S)-3-aminopyrrolidin-1-yl]-N-[(1H-benzimidazol-2-yl)methyl]-8-bromopyrazolo[1,5-a][1,3,5]triazin-4-amine], for which the IC50 was over 20000 nM at CDK9/CycT1; 14.3 nM in experiment [1] (Homo sapiens, MDA-MB-231, 96 h); 7.35 nM in experiment [2].
The like results for `Fc1cccc2[nH]c(CNc3nc(N4CCOCC4)nc4c(CC(F)(F)F)cnn34)nc12` [Example 303, N-[(4-fluoro-1H-benzimidazol-2-yl)methyl]-2-(morpholin-4-yl)-8-(2,2,2-trifluoroethyl)pyrazolo[1,5-a][1,3,5]triazin-4-amine] were, in that order, over 20000 nM, 26.5 nM and 4.79 nM.
The like results for `CN1CCN(c2nc(NCc3nc4cc(F)c(Cl)cc4[nH]3)n3ncc(C4CC4)c3n2)CC1` [Example 309, N-[(6-chloro-5-fluoro-1H-benzimidazol-2-yl)methyl]-8-cyclopropyl-2-(4-methylpiperazin-1-yl)pyrazolo[1,5-a][1,3,5]triazin-4-amine] were, in that order, over 20000 nM, 6.31 nM and 5.83 nM.
The like results for `NC1CCN(c2nc(NCc3nc4ccccc4[nH]3)n3ncc(Br)c3n2)CC1` [Example 256, 2-(4-aminopiperidin-1-yl)-N-[(1H-benzimidazol-2-yl)methyl]-8-bromopyrazolo[1,5-a][1,3,5]triazin-4-amine] were, in that order, over 20000 nM, 12.6 nM and 6.46 nM.
Regarding `NC1(C(F)(F)F)CCN(c2nc(NCc3nc4ccccc4[nH]3)n3ncc(Br)c3n2)C1` (centres unmarked) [Example 266, 2-[3-amino-3-(trifluoromethyl)pyrrolidin-1-yl]-N-(1H-benzimidazol-2-ylmethyl)-8-bromo-pyrazolo[1,5-a][1,3,5]triazin-4-amine], the IC50 on CDK9/CycT1 was over 20000 nM; in experiment [1] (Homo sapiens, MDA-MB-231, 96 h) it was 133 nM.
The like results for `Brc1cnn2c(NCc3nc4ccccc4[nH]3)nc(N3C[C@@H]4CN[C@@H]4C3)nc12.O=C(O)C(F)(F)F` [Example 267, trifluoroacetic acid-N-[(1H-benzimidazol-2-yl)methyl]-8-bromo-2-[(1S,5S)-3,6-diazabicyclo[3.2.0]heptan-3-yl]pyrazolo[1,5-a][1,3,5]triazin-4-amine (1/1)] were, in that order, over 20000 nM and 107 nM.
For `Brc1cnn2c(NCc3nc4ccccc4[nH]3)nc(N3C[C@H]4C[C@@H]3CN4)nc12` [Example 269, N-[(1H-benzimidazol-2-yl)methyl]-8-bromo-2-[(1R,4R)-2,5-diazabicyclo[2.2.1]heptan-2-yl]pyrazolo[1,5-a][1,3,5]triazin-4-amine], the IC50 at CDK9/CycT1 was over 20000 nM; in experiment [1] (Homo sapiens, MDA-MB-231, 96 h), 29.3 nM; in experiment [2] it was 8.39 nM.
The like results for `CN1CCN(c2nc(NCc3nc4cc(Cl)ccc4[nH]3)n3ncc(C(F)(F)F)c3n2)CC1` [Example 298, N-[(5-chloro-1H-benzimidazol-2-yl)methyl]-2-(4-methylpiperazin-1-yl)-8-(trifluoromethyl)pyrazolo[1,5-a][1,3,5]triazin-4-amine] were, in that order, over 20000 nM, 10.5 nM and 4.12 nM.
In the case of `Brc1cnn2c(NCc3nc4ccccc4[nH]3)nc(N3C[C@H]4CN[C@H]4C3)nc12.O=C(O)C(F)(F)F` [Example 255, trifluoroacetic acid-N-[(1H-benzimidazol-2-yl)methyl]-8-bromo-2-[(1R,5R)-3,6-diazabicyclo[3.2.0]heptan-3-yl]pyrazolo[1,5-a][1,3,5]triazin-4-amine (1/1)], the IC50 at CDK9/CycT1 was over 20000 nM; in experiment [1] (Homo sapiens, MDA-MB-231, 96 h), 61 nM.
The like results for `Fc1ccc2[nH]c(CNc3nc(N4CCOCC4)nc4c(C5CCCC5)cnn34)nc2c1F` [Example 262, 8-cyclopentyl-N-[(4,5-difluoro-1H-benzimidazol-2-yl)methyl]-2-(morpholin-4-yl)pyrazolo[1,5-a][1,3,5]triazin-4-amine] were, in that order, over 20000 nM and 101 nM.
As to `C[C@@]1(O)CCN(c2nc(NCc3nc4ccccc4[nH]3)n3ncc(Br)c3n2)C1` (single isomer, unassigned) [Example 281, (3R or S)-1-(4-{[(1H-benzimidazol-2-yl)methyl]amino}-8-bromopyrazolo[1,5-a][1,3,5]triazin-2-yl)-3-methylpyrrolidin-3-ol], the IC50 at CDK9/CycT1 was over 20000 nM; in experiment [1] (Homo sapiens, MDA-MB-231, 96 h) it was 306 nM.
`c1ccc2[nH]c(CNc3nc(N4CCOCC4)nc4c(C5CCCC5)cnn34)nc2c1` [Example 244, N-[(1H-benzimidazol-2-yl)methyl]-8-cyclopentyl-2-(morpholin-4-yl)pyrazolo[1,5-a][1,3,5]triazin-4-amine]: the IC50 on CDK9/CycT1 was over 20000 nM; in experiment [1] (Homo sapiens, MDA-MB-231, 96 h), 501 nM.
The like results for `Fc1ccc2[nH]c(CNc3nc(N4CCOCC4)nc4c(C5CCOCC5)cnn34)nc2c1F` [Example 276, N-[(4,5-difluoro-1H-benzimidazol-2-yl)methyl]-2-(morpholin-4-yl)-8-(oxan-4-yl)pyrazolo[1,5-a][1,3,5]triazin-4-amine] were, in that order, over 20000 nM and 258 nM.
As to `Brc1cnn2c(NCc3nc4cccnc4[nH]3)nc(N3CCNCC3)nc12.O=CO` [Example 19, 8-bromo-N-[(3H-imidazo[4,5-b]pyridin-2-yl)methyl]-2-(piperazin-1-yl)pyrazolo[1,5-a][1,3,5]triazin-4-amine formic acid salt], the IC50 on CDK9/CycT1 was over 20000 nM.
As to `OCC1CN(c2nc(NCc3nc4ccccc4[nH]3)n3ncc(Br)c3n2)C1` [Example 304, [1-(4-{[(1H-benzimidazol-2-yl)methyl]amino}-8-bromopyrazolo[1,5-a][1,3,5]triazin-2-yl)azetidin-3-yl]methanol], the IC50 is over 20000 nM at CDK9/CycT1 and 299 nM in experiment [1] (Homo sapiens, MDA-MB-231, 96 h).
The like results for `CN1CCN(c2nc(NCc3nc4ccccc4[nH]3)n3ncc(Br)c3n2)C(CO)C1` (single isomer, unassigned) [Example 280, [(2R or S)-1-(4-{[(1H-benzimidazol-2-yl)methyl]amino}-8-bromopyrazolo[1,5-a][1,3,5]triazin-2-yl)-4-methylpiperazin-2-yl]methanol] were, in that order, over 20000 nM and 231 nM.
Take `Fc1ccc2[nH]c(CNc3nc(N4CCOCC4)nc4c(Br)cnn34)nc2c1F` [Example 25, 8-bromo-N-[(4,5-difluoro-1H-benzimidazol-2-yl)methyl]-2-(morpholin-4-yl)pyrazolo[1,5-a][1,3,5]triazin-4-amine]: the values for the IC50 (at CDK9/CycT1; in experiment [2]) were 5780 nM and 3.01 nM, respectively.
In the case of `CC1(O)CCN(c2nc(NCc3nc4ccccc4[nH]3)n3ncc(Br)c3n2)C1` (single isomer, unassigned) [Example 282, (3R or S)-1-(4-{[(1H-benzimidazol-2-yl)methyl]amino}-8-bromopyrazolo[1,5-a][1,3,5]triazin-2-yl)-3-methylpyrrolidin-3-ol], the IC50 was over 20000 nM on CDK9/CycT1 and 178 nM in experiment [1] (Homo sapiens, MDA-MB-231, 96 h).
The like results for `CC(C)CNc1nc(NCc2nc3ccccc3[nH]2)n2ncc(Br)c2n1` [Example 285, N^4-[(1H-benzimidazol-2-yl)methyl]-8-bromo-N^2-(2-methylpropyl)pyrazolo[1,5-a][1,3,5]triazine-2,4-diamine] were, in that order, over 20000 nM and 90.6 nM.
The like results for `FC(F)(F)Cc1cnn2c(NCc3nc4ccccc4[nH]3)nc(N3CCOCC3)nc12.O=CO` [Example 265, formic acid-N-[(1H-benzimidazol-2-yl)methyl]-2-(morpholin-4-yl)-8-(2,2,2-trifluoroethyl)pyrazolo[1,5-a][1,3,5]triazin-4-amine (1/1)] were, in that order, over 20000 nM and 106 nM.
As for `CC1CN(C)CCN1c1nc(NCc2nc3ccccc3[nH]2)n2ncc(Br)c2n1` (single isomer, unassigned; enantiomer 2) [Example 261, N-(1H-benzimidazol-2-ylmethyl)-8-bromo-2-[(2R or S)-2,4-dimethylpiperazin-1-yl]pyrazolo[1,5-a][1,3,5]triazin-4-amine (Enantiomer 2)], the results for the IC50 (at CDK9/CycT1; in experiment [1]) were over 20000 nM and 99.9 nM, respectively.
